Legend:
[1] = biological target: T1, Alpha-1D adrenergic receptor (Homo sapiens, UniProt P25100); format: cell membranes, HEK293, Membrane; settings: hek293; also: in other assays of this panel Not Active means under 50% inhibition at 10 µM
T1 sequence (P25100 whole entry): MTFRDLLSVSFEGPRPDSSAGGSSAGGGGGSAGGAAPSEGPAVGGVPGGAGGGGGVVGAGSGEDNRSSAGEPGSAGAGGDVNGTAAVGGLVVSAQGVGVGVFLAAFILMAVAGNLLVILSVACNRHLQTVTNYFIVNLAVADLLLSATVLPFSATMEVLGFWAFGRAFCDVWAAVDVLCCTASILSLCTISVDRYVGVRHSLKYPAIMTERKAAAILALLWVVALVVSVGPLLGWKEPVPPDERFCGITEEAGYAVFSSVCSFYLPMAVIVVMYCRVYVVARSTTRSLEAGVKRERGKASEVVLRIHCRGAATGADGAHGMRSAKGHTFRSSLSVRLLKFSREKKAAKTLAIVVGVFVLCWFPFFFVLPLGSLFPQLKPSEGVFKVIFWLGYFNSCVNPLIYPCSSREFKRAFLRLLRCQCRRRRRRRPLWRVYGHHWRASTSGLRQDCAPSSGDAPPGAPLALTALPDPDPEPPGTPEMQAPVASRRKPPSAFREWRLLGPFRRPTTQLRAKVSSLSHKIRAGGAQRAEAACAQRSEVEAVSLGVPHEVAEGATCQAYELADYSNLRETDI

[2] = DRUGMATRIX: Atrial Natriuretic Factor (ANF) radioligand binding (ligand: [125I] ANF (rat)); format: cell membranes, Cavia porcellus, Dunkin-Hartley, Adrenal gland, Membrane; settings: Not Active = under 50% inhibition at 10 µM
[3] = DRUGMATRIX: Calcium Channel Type L, Dihydropyridine radioligand binding (ligand: [3H] Nitrendipine); format: cell membranes, Rattus norvegicus, Wistar, Cerebral cortex, Membrane; settings: Not Active = under 50% inhibition at 10 µM
[4] = biological target: T2, 5-hydroxytryptamine receptor 2C (Homo sapiens, UniProt P28335); test: DRUGMATRIX: Serotonin (5-Hydroxytryptamine) 5-HT2C radioligand binding (ligand: [3H] Mesulergine); format: cell membranes, CHO-K1, Membrane; settings: cho-k1; Not Active = under 50% inhibition at 10 µM
T2 sequence (P28335 whole entry): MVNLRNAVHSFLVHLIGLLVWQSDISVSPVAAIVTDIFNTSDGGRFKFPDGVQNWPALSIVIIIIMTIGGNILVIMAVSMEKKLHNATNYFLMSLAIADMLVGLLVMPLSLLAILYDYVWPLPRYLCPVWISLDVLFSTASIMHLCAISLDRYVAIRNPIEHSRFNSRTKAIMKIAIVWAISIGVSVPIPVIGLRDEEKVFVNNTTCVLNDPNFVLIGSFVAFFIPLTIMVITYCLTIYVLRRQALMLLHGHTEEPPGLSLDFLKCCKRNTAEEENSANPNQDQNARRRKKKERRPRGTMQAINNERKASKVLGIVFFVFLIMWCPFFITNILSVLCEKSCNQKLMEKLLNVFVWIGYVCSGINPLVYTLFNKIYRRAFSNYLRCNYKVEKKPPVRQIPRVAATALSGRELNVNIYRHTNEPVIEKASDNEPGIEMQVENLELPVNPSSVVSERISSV

[5] = biological target: Sigma non-opioid intracellular receptor 1 (Homo sapiens, UniProt Q99720); test: DRUGMATRIX: Sigma1 radioligand binding (ligand: [3H] Haloperidol); format: cell membranes, Jurkat, Membrane; settings: jurkat; Not Active = under 50% inhibition at 10 µM
Vasopressin V1a receptor = Vasopressin V1a receptor (Homo sapiens, UniProt P37288); format: cell membranes, Membrane; settings: hek293; also: in other assays of this panel Not Active means under 50% inhibition at 10 µM
[6] = DRUGMATRIX: Calcium Channel Type L, Phenylalkylamine radioligand binding (ligand: [3H] (-)-Desmethoxyverapamil (D-888)); format: cell membranes, Rattus norvegicus, Wistar, Brain, Membrane; settings: Not Active = under 50% inhibition at 10 µM
[7] = biological target: C-C chemokine receptor type 2 (Homo sapiens, UniProt P41597); format: cell membranes, CHO-K1, Membrane; settings: cho-k1; also: in other assays of this panel Not Active means under 50% inhibition at 10 µM
[8] = biological target: Prostaglandin G/H synthase 1 (Homo sapiens, UniProt P23219); test: biochemical; format: tissue-based, Platelet; settings: platelet;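 also: inhibition of COX-1 enzyme activity, with arachidonic acid supplied as substrate; in other assays of this panel Not Active means under 50% inhibition at 10 µM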
[9] = biological target: T3, Neuropeptide Y receptor type 1 (Homo sapiens, UniProt P25929); format: cell membranes, Membrane; settings: sk-n-mc; also: in other assays of this panel Not Active means under 50% inhibition at 10 µM
T3 sequence (P25929 whole entry): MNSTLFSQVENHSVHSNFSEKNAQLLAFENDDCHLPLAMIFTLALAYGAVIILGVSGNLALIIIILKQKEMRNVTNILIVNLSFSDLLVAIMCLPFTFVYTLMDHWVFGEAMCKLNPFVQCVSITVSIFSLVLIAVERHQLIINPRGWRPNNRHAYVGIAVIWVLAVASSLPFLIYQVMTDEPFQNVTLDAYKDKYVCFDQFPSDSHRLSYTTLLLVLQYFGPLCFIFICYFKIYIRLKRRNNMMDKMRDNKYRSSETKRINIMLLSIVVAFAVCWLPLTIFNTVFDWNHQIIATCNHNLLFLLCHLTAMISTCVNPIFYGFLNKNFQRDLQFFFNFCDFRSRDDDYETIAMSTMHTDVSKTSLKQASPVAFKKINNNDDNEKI

Progesterone receptor = biological target: T4, Progesterone receptor (Bos taurus, UniProt Q690N0); test: DRUGMATRIX: Progesterone radioligand binding (ligand: [3H] R-5020); format: tissue-based, Uterus; settings: Not Active = under 50% inhibition at 10 µM
T4 sequence (Q690N0 whole entry): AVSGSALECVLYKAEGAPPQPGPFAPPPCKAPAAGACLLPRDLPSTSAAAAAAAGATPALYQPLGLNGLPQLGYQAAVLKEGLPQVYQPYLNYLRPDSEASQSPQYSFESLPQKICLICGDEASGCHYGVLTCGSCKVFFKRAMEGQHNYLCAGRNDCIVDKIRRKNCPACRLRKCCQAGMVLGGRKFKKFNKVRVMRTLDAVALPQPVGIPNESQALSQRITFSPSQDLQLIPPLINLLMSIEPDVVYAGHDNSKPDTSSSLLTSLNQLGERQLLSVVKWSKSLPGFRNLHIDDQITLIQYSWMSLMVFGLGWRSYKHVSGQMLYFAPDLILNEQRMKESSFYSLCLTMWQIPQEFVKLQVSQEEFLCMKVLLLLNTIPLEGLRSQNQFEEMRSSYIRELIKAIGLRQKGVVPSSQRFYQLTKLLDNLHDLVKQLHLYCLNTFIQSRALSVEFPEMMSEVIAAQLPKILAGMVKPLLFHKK

[10] = biological target: Mitogen-activated protein kinase 1 (Homo sapiens, UniProt P28482); test: DRUGMATRIX: Protein Serine/Threonine Kinase, ERK2 enzyme inhibition (substrate: Myelin Basic Protein); design: species or system Escherichia coli; settings: Not Active = under 50% inhibition at 10 µM
Cytochrome P450 2C19 = Cytochrome P450 2C19 (Homo sapiens, UniProt P33261); settings: bti-tn-5b1-4; also: in other assays of this panel Not Active means under 50% inhibition at 10 µM
Cytochrome P450 2C19, sequence (P33261 whole entry): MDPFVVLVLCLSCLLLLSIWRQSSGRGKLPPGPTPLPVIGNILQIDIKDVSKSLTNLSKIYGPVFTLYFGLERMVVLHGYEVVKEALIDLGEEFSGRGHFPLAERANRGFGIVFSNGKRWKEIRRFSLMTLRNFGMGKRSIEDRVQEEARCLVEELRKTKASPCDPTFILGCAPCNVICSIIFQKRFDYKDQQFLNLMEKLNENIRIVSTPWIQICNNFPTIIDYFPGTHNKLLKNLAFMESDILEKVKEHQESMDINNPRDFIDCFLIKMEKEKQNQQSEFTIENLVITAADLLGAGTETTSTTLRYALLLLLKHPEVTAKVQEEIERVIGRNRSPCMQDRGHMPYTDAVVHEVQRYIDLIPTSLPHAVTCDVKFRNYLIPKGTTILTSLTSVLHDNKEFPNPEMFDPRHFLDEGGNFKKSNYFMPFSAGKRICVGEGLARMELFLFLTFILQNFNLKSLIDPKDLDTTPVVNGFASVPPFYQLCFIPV

Sigma non-opioid intracellular receptor 1, sequence (Q99720 whole entry): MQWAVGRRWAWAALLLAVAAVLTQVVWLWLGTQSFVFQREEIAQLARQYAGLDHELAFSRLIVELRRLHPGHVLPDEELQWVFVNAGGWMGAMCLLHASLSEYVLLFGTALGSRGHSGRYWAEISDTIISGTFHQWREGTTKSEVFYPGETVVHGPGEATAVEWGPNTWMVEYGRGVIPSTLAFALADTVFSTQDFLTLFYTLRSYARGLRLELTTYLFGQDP
Mitogen-activated protein kinase 1, sequence (P28482 whole entry): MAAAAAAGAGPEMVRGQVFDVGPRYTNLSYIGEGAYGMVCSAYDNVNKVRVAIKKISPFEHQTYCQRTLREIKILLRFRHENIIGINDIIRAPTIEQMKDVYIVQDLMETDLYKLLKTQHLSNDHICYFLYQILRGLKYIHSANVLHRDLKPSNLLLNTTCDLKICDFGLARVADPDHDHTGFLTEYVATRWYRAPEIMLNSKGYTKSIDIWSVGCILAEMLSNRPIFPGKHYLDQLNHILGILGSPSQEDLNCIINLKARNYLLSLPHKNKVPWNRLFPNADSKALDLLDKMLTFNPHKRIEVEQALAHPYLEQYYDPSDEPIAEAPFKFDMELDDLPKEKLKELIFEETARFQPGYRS
Vasopressin V1a receptor, sequence (P37288 whole entry): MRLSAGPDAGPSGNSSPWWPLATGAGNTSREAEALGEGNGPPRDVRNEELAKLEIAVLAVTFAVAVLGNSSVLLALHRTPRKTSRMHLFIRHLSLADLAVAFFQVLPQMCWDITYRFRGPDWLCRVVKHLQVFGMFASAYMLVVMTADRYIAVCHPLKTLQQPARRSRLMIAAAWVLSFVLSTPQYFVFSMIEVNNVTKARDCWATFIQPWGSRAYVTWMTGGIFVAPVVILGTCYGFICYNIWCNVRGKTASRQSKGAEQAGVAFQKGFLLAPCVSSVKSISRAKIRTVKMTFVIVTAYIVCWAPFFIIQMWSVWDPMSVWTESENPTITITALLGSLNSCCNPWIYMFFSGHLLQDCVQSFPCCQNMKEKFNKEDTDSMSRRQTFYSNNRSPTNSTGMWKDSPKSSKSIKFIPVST
Prostaglandin G/H synthase 1, sequence (P23219 whole entry): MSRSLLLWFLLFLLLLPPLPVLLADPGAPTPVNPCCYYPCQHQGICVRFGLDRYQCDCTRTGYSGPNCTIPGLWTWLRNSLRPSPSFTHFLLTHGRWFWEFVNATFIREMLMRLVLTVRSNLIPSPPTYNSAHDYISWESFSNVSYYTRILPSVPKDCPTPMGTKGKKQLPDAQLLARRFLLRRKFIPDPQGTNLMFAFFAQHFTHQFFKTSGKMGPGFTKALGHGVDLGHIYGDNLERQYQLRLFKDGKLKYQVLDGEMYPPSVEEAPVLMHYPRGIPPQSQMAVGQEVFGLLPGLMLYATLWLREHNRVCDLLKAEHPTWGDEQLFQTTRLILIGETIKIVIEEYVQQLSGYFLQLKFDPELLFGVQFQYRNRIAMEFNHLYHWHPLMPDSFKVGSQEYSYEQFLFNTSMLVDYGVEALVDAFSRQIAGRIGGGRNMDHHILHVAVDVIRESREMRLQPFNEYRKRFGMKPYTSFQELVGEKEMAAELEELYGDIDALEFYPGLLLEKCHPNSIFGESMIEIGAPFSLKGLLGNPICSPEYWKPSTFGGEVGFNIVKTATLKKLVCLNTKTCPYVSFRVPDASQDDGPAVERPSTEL
C-C chemokine receptor type 2, sequence (P41597 whole entry): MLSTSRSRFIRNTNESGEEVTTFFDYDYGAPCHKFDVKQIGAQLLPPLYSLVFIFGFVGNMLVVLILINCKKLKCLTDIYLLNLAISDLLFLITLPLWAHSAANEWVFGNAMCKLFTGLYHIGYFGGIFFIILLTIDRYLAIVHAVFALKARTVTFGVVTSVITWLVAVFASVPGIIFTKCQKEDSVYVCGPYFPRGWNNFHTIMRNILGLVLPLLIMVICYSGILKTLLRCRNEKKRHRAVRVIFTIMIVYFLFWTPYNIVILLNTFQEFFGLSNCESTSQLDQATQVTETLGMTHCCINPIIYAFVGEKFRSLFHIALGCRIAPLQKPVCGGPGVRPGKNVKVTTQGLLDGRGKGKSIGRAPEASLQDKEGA

## C[C@]12CCC(=O)C=C1CC[C@@H]1[C@@H]2C(=O)C[C@@]2(C)[C@H]1CC[C@]2(O)C(=O)CO [CORTISONE]
[1]
  IC50: Not Active
[2]
  IC50: Not Active
  Ki: Not Active
[3]
  IC50: Not Active
  Ki: Not Active
[4]
  IC50: Not Active
[5]
  IC50: Not Active
Vasopressin V1a receptor
  IC50: Not Active
[6]
  IC50: Not Active
  Ki: Not Active
[7]
  IC50: Not Active
[8]
  IC50: Not Active
[9]
  IC50: Not Active
Progesterone receptor
  IC50: Not Active
[10]
  IC50: Not Active
Cytochrome P450 2C19
  IC50: Not Active
  Ki: Not Active

## Brc1ccccc1 [BROMOBENZENE]
[1]
  IC50: Not Active
[2]
  IC50: Not Active
  Ki: Not Active
[3]
  IC50: Not Active
  Ki: Not Active
[4]
  IC50: Not Active
[5]
  IC50: Not Active
Vasopressin V1a receptor
  IC50: Not Active
[6]
  IC50: Not Active
  Ki: Not Active
[7]
  IC50: Not Active
[8]
  IC50: Not Active
[9]
  IC50: Not Active
Progesterone receptor
  IC50: Not Active
[10]
  IC50: Not Active
Cytochrome P450 2C19
  IC50: Not Active
  Ki: Not Active

## O=C1NC(=O)C(c2ccccc2)(c2ccccc2)N1 [PHENYTOIN]
[1]
  IC50: Not Active
[2]
  IC50: Not Active
  Ki: Not Active
[3]
  IC50: Not Active
  Ki: Not Active
[4]
  IC50: Not Active
[5]
  IC50: Not Active
Vasopressin V1a receptor
  IC50: Not Active
[6]
  IC50: Not Active
  Ki: Not Active
[7]
  IC50: Not Active
[8]
  IC50: Not Active
[9]
  IC50: Not Active
Progesterone receptor
  IC50: Not Active
[10]
  IC50: Not Active
Cytochrome P450 2C19
  IC50: Not Active
  Ki: Not Active

## CC(=O)[C@@]1(O)CC[C@H]2[C@@H]3C[C@H](C)C4=CC(=O)C=C[C@]4(C)[C@@]3(F)[C@@H](O)C[C@@]21C [FLUOROMETHOLONE]
[1]
  IC50: Not Active
[2]
  IC50: Not Active
  Ki: Not Active
[3]
  IC50: Not Active
  Ki: Not Active
[4]
  IC50: Not Active
[5]
  IC50: Not Active
Vasopressin V1a receptor
  IC50: Not Active
[6]
  IC50: Not Active
  Ki: Not Active
[7]
  IC50: Not Active
[8]
  IC50: Not Active
[9]
  IC50: Not Active
Progesterone receptor; read-out: IC50
  IC50: 0.815 µM
Progesterone receptor; read-out: Ki
  Ki: 0.106 µM
[10]
  IC50: Not Active
Cytochrome P450 2C19
  IC50: Not Active
  Ki: Not Active

## Nc1nc2c(ncn2COC(CO)CO)c(=O)[nH]1 [GANCICLOVIR]
[1]
  IC50: Not Active
[2]
  IC50: Not Active
  Ki: Not Active
[3]
  IC50: Not Active
  Ki: Not Active
[4]
  IC50: Not Active
[5]
  IC50: Not Active
Vasopressin V1a receptor
  IC50: Not Active
[6]
  IC50: Not Active
  Ki: Not Active
[7]
  IC50: Not Active
[8]
  IC50: Not Active
[9]
  IC50: Not Active
Progesterone receptor
  IC50: Not Active
[10]
  IC50: Not Active
Cytochrome P450 2C19
  IC50: Not Active
  Ki: Not Active

## O=C1CCc2cc(OCCCCc3nnnn3C3CCCCC3)ccc2N1 [CILOSTAZOL]
[1]
  IC50: Not Active
[2]
  IC50: Not Active
  Ki: Not Active
[3]
  IC50: Not Active
  Ki: Not Active
[4]
  IC50: Not Active
[5]
  IC50: Not Active
Vasopressin V1a receptor
  IC50: Not Active
[6]
  IC50: Not Active
  Ki: Not Active
[7]
  IC50: Not Active
[8]
  IC50: Not Active
[9]
  IC50: Not Active
Progesterone receptor
  IC50: Not Active
[10]
  IC50: Not Active
Cytochrome P450 2C19
  IC50: Not Active
  Ki: Not Active

## COCc1c(C(C)C)nc(C(C)C)c(/C=C/[C@@H](O)C[C@@H](O)CC(=O)O)c1-c1ccc(F)cc1 [CERIVASTATIN]
[1]
  IC50: Not Active
[2]
  IC50: Not Active
  Ki: Not Active
[3]
  IC50: Not Active
  Ki: Not Active
[4]
  IC50: Not Active
[5]
  IC50: Not Active
Vasopressin V1a receptor
  IC50: Not Active
[6]
  IC50: Not Active
  Ki: Not Active
[7]
  IC50: Not Active
[8]
  IC50: Not Active
[9]
  IC50: Not Active
Progesterone receptor
  IC50: Not Active
[10]
  IC50: Not Active
Cytochrome P450 2C19
  IC50: Not Active
  Ki: Not Active

## CC1(C)S[C@@H]2[C@H](NC(=O)[C@H](N)c3ccc(O)cc3)C(=O)N2[C@H]1C(=O)O [AMOXICILLIN]
[1]
  IC50: Not Active
[2]
  IC50: Not Active
  Ki: Not Active
[3]
  IC50: Not Active
  Ki: Not Active
[4]
  IC50: Not Active
[5]
  IC50: Not Active
Vasopressin V1a receptor
  IC50: Not Active
[6]
  IC50: Not Active
  Ki: Not Active
[7]
  IC50: Not Active
[8]
  IC50: Not Active
[9]
  IC50: Not Active
Progesterone receptor
  IC50: Not Active
[10]
  IC50: Not Active
Cytochrome P450 2C19
  IC50: Not Active
  Ki: Not Active

## CCOC(=O)OC(C)OC1=C(C(=O)Nc2ccccn2)N(C)S(=O)(=O)c2ccccc21 (centres undefined) [AMPIROXICAM]
[1]
  IC50: Not Active
[2]
  IC50: Not Active
  Ki: Not Active
[3]
  IC50: Not Active
  Ki: Not Active
[4]
  IC50: Not Active
[5]
  IC50: Not Active
Vasopressin V1a receptor
  IC50: Not Active
[6]
  IC50: Not Active
  Ki: Not Active
[7]
  IC50: Not Active
[8]
  IC50: Not Active
[9]
  IC50: Not Active
Progesterone receptor
  IC50: Not Active
[10]
  IC50: Not Active
Cytochrome P450 2C19
  IC50: Not Active
  Ki: Not Active

From ChEMBL document CHEMBL1909046, “DrugMatrix in vitro pharmacology data”
